Key:
[1] = tested on: horse plasma; assay: Thrombelastography of horse plasma, coagulation study (no tPA); format: biochemical; set-up: increase in TTG vs control / decrease in MRTG vs control / decrease in TTG vs control / decrease in MRTG vs control sample / decrease in TTG vs control sample / increase in MRTG vs control sample / increase in TTG vs control sample: concentration or dose not given beside the values; details: for MRTG / TMRTG / TTG / MA / R / α: PHA 10 mM, CORM-2 100 μM
Method: (§1) Blood was collected directly into plastic tubes containing 0.105 M sodium citrate (9:1, v/v) from the jugular vein of ten clinically normal grade and American Quarter Horse mares between 400 and 600 kg. Three additional horses to be subsequently described with acute gastrointestinal disease had blood samples similarly collected. The mares were group-housed in corrals. Plasma was obtained by centrifugation of citrated whole blood at 3000×g for 15 minutes and immediately frozen at −80° C. Plasma was subsequently shipped on dry ice and stored at −80° C. until thrombelastographic analysis.
The final volume for all subsequently described plasma sample mixtures was 359.6 μl. Sample composition for this series of experiments consisted of 326 μl of plasma; 10 μl of tissue factor reagent (0.1% final concentration in dH2O; Diagnostica Stago S.A.S., Asnieres sur Seine, France); 3.6 μl of dH2O, or 3.6 μl dH2O containing the heme-binding reductant phenylhydroxylamine (PHA, 10 mM final concentration, Sigma-Aldrich, Saint Louis, Mo., USA), or 3.6 μl of dimethyl sulfoxide with CORM-2 (100 μM final concentration; Sigma-Aldrich, Saint Louis, Mo., USA); and 20 μl of 200 mM CaCl2. As previously described in human plasma (McMichael et al., 2011, Blood Coagul Fibrinolysis, 22: 424-430), this diagnostic panel is designed to determine hemostatic kinetic changes following of formation of carboxyhemefibrinogen (Fe^+2 state) after exposure to CO released from CORM-2 and to determine the effects of formation of methemefibrinogen (Fe^+3 state) after exposure to PHA. The relative change from baseline kinetics caused by exposure to CORM-2 and PHA allow determination of the balance between oxy/carboxy/methemefibrinogen concentrations in human plasma (McMichael et al., 2011, Blood Coagul Fibrinolysis, 22: 424-430).
(§2) Plasma sample mixtures were placed in a disposable cup in a computer-controlled Thrombelastograph® hemostasis system (Model 5000, Haemoscope Corp., Niles, Ill., USA), with addition of CaCl2 as the last step to initiate clotting. Data were collected at 37° C. for 15 min in the first series of experiments involving coagulation alone, whereas in the experiments involving fibrinolysis data were collected until clot lysis time was observed. Elastic modulus-based parameters previously described were determined (Nielsen et al., 2009, Blood Coagul Fibrinolysis, 20: 377-380; Nielsen et al., 2009, Blood Coagul Fibrinolysis, 20: 448-455). The nomenclature used to describe these phenomena is as follows:
(§3) Time to maximum rate of thrombus generation (TMRTG): This is the time interval (min) observed prior to maximum speed of clot growth.
(§4) Maximum rate of thrombus generation (MRTG): This is the maximum velocity of clot growth observed (dynes/cm^2/sec).
(§5) Total Thrombus Generation (TTG): This is the total area under the velocity curve during clot growth (dynes/cm^2), representing the amount of clot strength generated during clot growth.
(§6) Thrombelastographic data are presented as mean±SD or as individual animal parameter values as appropriate. The effects of addition of CORM-2 and PHA on coagulation and fibrinolytic kinetic parameters were analyzed with one way repeated measures analysis of variance, utilizing Holm-Sidak post hoc test (SigmaStat 3.1, Systat Software, Inc., San Jose, Calif., USA) as appropriate. A P value of <0.05 was considered significant.

[2] = tested on: horse plasma; assay: Thrombelastography of horse plasma, coagulation and fibrinolysis study (with tPA); format: biochemical; details: for % TTG Loss / MRL / MRTG / TMRL / TMRTG / TTG / CGT / CLS / CLT: CORM-2 100 μM
Method: as §1
In the second series of experiments assessing both coagulation and fibrinolysis, sample composition consisted of 316 μl of plasma; 10 μl of tissue factor reagent (0.1% final concentration), 10 μl of tissue type plasminogen activator (tPA, 580 Genentech, Inc., San Francisco, Calif., USA; 300 IU/ml final concentration); 3.6 μl of dH2O, or 3.6 μl dH2O containing PHA (10 mM final concentration), or 3.6 μl of CORM-2 (100 μM final concentration) and 20 μl of 200 mM CaCl2. The effects of converting heme groups to either a carboxyheme or metheme in horse plasma during clot growth and fibrinolysis were assessed as subsequently described.
as §2, §3, §4, §5
Time to maximum rate of lysis (TMRL): This is the time interval (min) measured from the time of maximum strength to the time when the velocity of clot disintegration is maximal.
Maximum Rate of Lysis (MRL): This is the maximum velocity of clot disintegration observed (-dynes/cm^2/sec).
Clot growth time (CGT): This is the time from clot amplitude of 2 mm [102 dynes/cm^2] until maximum strength is achieved, in min.
Clot lifespan (CLS): This is the sum of CGT and CLT.
as §6

[3] = horse with lethal disease, no tPA
[4] = horse with lethal enteritis, no tPA
[5] = horse with mild disease, no tPA
[6] = horse with mild enteritis, no tPA
[7] = horse with moderate disease, no tPA
[8] = horse with moderate enteritis, no tPA
[9] = horse with lethal enteritis, tPA
[10] = horse with mild disease, tPA, PHA 10 mM
[11] = horse with moderate disease, tPA, PHA 10 mM
[12] = horse with moderate enteritis, tPA
[13] = normal horses, tPA 300 IU/ml, PHA 10 mM

[C-]#[O+].[C-]#[O+].[C-]#[O+].[C-]#[O+].[C-]#[O+].[C-]#[O+].[Cl][Ru][Cl].[Cl][Ru][Cl] [CORM-2, tricarbonyldichlororuthenium (II) dimer]
MRTG [1, 3]: 5.0 dynes/cm^2/sec | TMRTG [1, 3]: 3.7 min | TTG [1, 3]: 126 dynes/cm^2 | increase in MRTG vs control sample [1, 4]: 67% | increase in TTG vs control sample [1, 4]: 97% | MRTG [1, 5]: 10.2 dynes/cm^2/sec | TMRTG [1, 5]: 2.9 min | TTG [1, 5]: 308 dynes/cm^2 | increase in MRTG vs control sample [1, 6]: 16% | increase in TTG vs control sample [1, 6]: 25% | MRTG [1, 7]: 9.1 dynes/cm^2/sec | TMRTG [1, 7]: 2.4 min | TTG [1, 7]: 238 dynes/cm^2 | increase in MRTG vs control sample [1, 8]: 28% | increase in TTG vs control sample [1, 8]: 47% | increase in TTG vs control ([1]; normal horses, no tPA): 9% | MA ([1]; normal horses): 40.4 ± 3.4 | MRTG ([1]; normal horses): 13.0 ± 2.9 dynes/cm^2/sec | R ([1]; normal horses): 2.0 ± 0.4 | TMRTG ([1]; normal horses): 2.8 ± 0.5 min | TTG ([1]; normal horses): 342 ± 48 dynes/cm^2 | α ([1]; normal horses): 80.2 ± 2.1 | % TTG Loss ([2]; horse with lethal disease, tPA): 67.4% | MRL ([2]; horse with lethal disease, tPA): 0.1 -dynes/cm^2/sec | MRTG ([2]; horse with lethal disease, tPA): 2.8 dynes/cm^2/sec | TMRL ([2]; horse with lethal disease, tPA): 65.2 min | TMRTG ([2]; horse with lethal disease, tPA): 4.1 min | TTG ([2]; horse with lethal disease, tPA): 92 dynes/cm^2 | effect on MRL vs control sample [2, 9]: did not affect | increase in MRTG vs control sample [2, 9]: 12% | increase in TMRL vs control sample [2, 9]: 8 fold | increase in TTG vs control sample [2, 9]: 73% | % TTG Loss [2, 10]: 50.7% | MRL [2, 10]: 0.2 -dynes/cm^2/sec | MRTG [2, 10]: 6.8 dynes/cm^2/sec | TMRL [2, 10]: 122.8 min | TMRTG [2, 10]: 3.2 min | TTG [2, 10]: 274 dynes/cm^2 | decrease in MRL vs control sample ([2]; horse with mild enteritis, tPA): 88% | decrease in MRTG vs control sample ([2]; horse with mild enteritis, tPA): 3% | increase in TMRL vs control sample ([2]; horse with mild enteritis, tPA): 46 fold | increase in TTG vs control sample ([2]; horse with mild enteritis, tPA): 77% | % TTG Loss [2, 11]: 25.8% | MRL [2, 11]: 0.4 -dynes/cm^2/sec | MRTG [2, 11]: 7.2 dynes/cm^2/sec | TMRL [2, 11]: 62.9 min | TMRTG [2, 11]: 2.5 min | TTG [2, 11]: 198 dynes/cm^2 | decrease in MRL vs control sample [2, 12]: 83% | increase in MRTG vs control sample [2, 12]: 38% | increase in TMRL vs control sample [2, 12]: 55 fold | increase in TTG vs control sample [2, 12]: 160% | decrease in CGT vs control ([2]; normal horses, tPA): 26% | decrease in CLS (clot lifespan) vs control ([2]; normal horses, tPA): 77% | decrease in CLT vs control ([2]; normal horses, tPA): 83% | decrease in MRL vs control ([2]; normal horses, tPA): 27% | increase (prolongation) in TMRL vs control ([2]; normal horses, tPA): 113% | increase in CGT vs control ([2]; normal horses, tPA): 106% | increase in CLS vs control ([2]; normal horses, tPA): 154% | increase in CLT vs control ([2]; normal horses, tPA): 160% | increase in TTG vs control ([2]; normal horses, tPA): 35% | CGT [2, 13]: 6.4 ± 1.7 min | CLS [2, 13]: 77.1 ± 23.8 | CLT [2, 13]: 70.6 ± 23.0 min | MRL [2, 13]: 1.1 ± 0.5 -dynes/cm^2/sec | MRTG [2, 13]: 13.2 ± 3.4 dynes/cm^2/sec | TMRL [2, 13]: 26.2 ± 17.3 min | TMRTG [2, 13]: 2.7 ± 0.4 min | TTG [2, 13]: 312 ± 70 dynes/cm^2

ONc1ccccc1 [PHA, phenylhydroxylamine]
MRTG [1, 3]: 0.1 dynes/cm^2/sec | TMRTG [1, 3]: 8.2 min | TTG [1, 3]: 2 dynes/cm^2 | effect on coagulation [1, 4]: essentially extinguished coagulation | MRTG [1, 5]: 4.8 dynes/cm^2/sec | TMRTG [1, 5]: 3.9 min | TTG [1, 5]: 177 dynes/cm^2 | decrease in MRTG vs control sample [1, 6]: 45% | decrease in TTG vs control sample [1, 6]: 28% | MRTG [1, 7]: 3.9 dynes/cm^2/sec | TMRTG [1, 7]: 3.5 min | TTG [1, 7]: 126 dynes/cm^2 | decrease in MRTG vs control sample [1, 8]: 45% | decrease in TTG vs control sample [1, 8]: 22% | decrease in MRTG vs control ([1]; normal horses, no tPA): 54% | decrease in TTG vs control ([1]; normal horses, no tPA): 47% | MA ([1]; normal horses): 24.6 ± 2.7 | MRTG ([1]; normal horses): 6.2 ± 1.7 dynes/cm^2/sec | R ([1]; normal horses): 2.4 ± 0.4 | TMRTG ([1]; normal horses): 3.4 ± 0.6 min | TTG ([1]; normal horses): 166 ± 23 dynes/cm^2 | α ([1]; normal horses): 71.7 ± 3.6 | % TTG Loss [2, 10]: 100% | MRL [2, 10]: 2.6 -dynes/cm^2/sec | MRTG [2, 10]: 4.0 dynes/cm^2/sec | TMRL [2, 10]: 2.4 min | TMRTG [2, 10]: 3.4 min | TTG [2, 10]: 100 dynes/cm^2 | decrease in MRTG vs control sample ([2]; horse with mild enteritis, tPA): 42% | decrease in TTG vs control sample ([2]; horse with mild enteritis, tPA): 28% | difference in TMRL between control and exposed sample ([2]; horse with mild enteritis, tPA): 8% | increase in MRL vs control sample ([2]; horse with mild enteritis, tPA): 53% | % TTG Loss [2, 11]: 100% | MRL [2, 11]: 2.3 -dynes/cm^2/sec | MRTG [2, 11]: 4.5 dynes/cm^2/sec | TMRL [2, 11]: 2.8 min | TMRTG [2, 11]: 2.8 min | TTG [2, 11]: 94 dynes/cm^2 | change in MRL vs control sample [2, 12]: essentially no change | decrease in MRTG vs control sample [2, 12]: 13% | increase in TMRL vs control sample [2, 12]: 64% | increase in TTG vs control sample [2, 12]: 23% | decrease in CLS (clot lifespan) vs control ([2]; normal horses, tPA): 77% | decrease in MRTG vs control ([2]; normal horses, tPA): 55% | decrease in TMRL vs control ([2]; normal horses, tPA): 84% | increase in MRL vs control ([2]; normal horses, tPA): 133% | CGT [2, 13]: 2.3 ± 0.5 min | CLS [2, 13]: 6.9 ± 1.4 | CLT [2, 13]: 4.6 ± 1.3 min | MRL [2, 13]: 3.5 ± 0.8 -dynes/cm^2/sec | MRTG [2, 13]: 5.6 ± 1.3 dynes/cm^2/sec | TMRL [2, 13]: 2.0 ± 0.2 min | TMRTG [2, 13]: 3.2 ± 0.6 min | TTG [2, 13]: 118 ± 26 dynes/cm^2
